# US9511091B2, “Rare earth metal compounds, methods of making, and methods of using the same” (Spectrum Pharmaceuticals, Inc., priority 2002, dated 2016)
# Legend:
# [1] = binding efficiency test, spiked water; settings: 0.50 g in 30.0 ml spike solution, approximately 1 mg/l of each element, 18 hrs, room temperature
# Experimental: Tests were run to determine the binding efficiency of eight different compounds for twenty-four different elements.
# The main objective of the tests was to investigate the efficiency at which the compounds bind arsenic and selenium, in view of their use in removing those elements from drinking water. Twenty-one different anions were also included to explore further possibilities. The tests were performed as follows:
# The compounds given in Table 6 were added to water and a spike and were vigorously shaken at room temperature for 18 hrs. The samples were filtered and the filtrate analyzed for a suite of elements including Sb, As, Be, Cd, Ca, Cr, Co, Cu, Fe, Pb, Mg, Mn, Mo, Ni, Se, Tl, Ti, V, Zn, Al, Ba, B, Ag, and P.
# 2. Add standard solutions of the elements given above to make solutions containing approximately 1 mg/l of each element.
# 1. Weigh 0.50 g of each compound into its own 50 ml centrifuge tube.
# 2. Add 30.0 ml of the spike solution to each.
# 3. Cap tightly and shake vigorously for 18 hrs.
# 4. Filter solution from each centrifuge tube through 0.2 µm syringe filter. Obtain about 6 ml of filtrate.
# 5. Dilute filtrates 5:10 with 2% HNO3. Final Matrix is 1% HNO3.
# [2] = plasma lanthanum exposure in dogs (ICP-MS); format: in vivo, beagle dogs; settings: oral capsules, 2250 mg elemental lanthanum twice daily, (standard deviation)
# Experimental: (§1) Six adult beagle dogs were dosed orally with capsules of LaCO3OH (compound A) or La2O2CO3 (compound B) in a cross-over design using a dose of 2250 mg elemental lanthanum twice daily (6 hours apart). The doses were administered 30 minutes after provision of food to the animals. At least 14 days washout was allowed between the crossover arms. Plasma was obtained pre-dose and 1.5, 3, 6, 7.5, 9, 12, 24, 36, 48, 60, and 72 hours after dosing and analyzed for lanthanum using ICP-MS. Urine was collected by catheterization before and approximately 24 hours after dosing and creatinine and phosphorus concentrations measured.
# [3] = reactivity with respect to phosphate: phosphate removal from pH 3 Na2HPO4/HCl stock solution; format: binding; settings: for rate of removal of phosphate compared with commercial lanthanum carbonate hydrate La2(CO3)3.H2O and La2(CO3)3.4H2O: FIGS. 17, 20, 23, pH 3; for capacity of phosphate removal (PO4 removed/g of La compound) / phosphate in solution removed: after 10 min, pH 3, La 3 times the stoichiometric amount
# Experimental: A desirable lanthanum carbonate hydroxide is LaCO3OH. […] To determine the reactivity of the lanthanum carbonate hydroxide compound with respect to phosphate, the following procedure was used. A stock solution containing 13.75 g/l of anhydrous Na2HPO4 and 8.5 g/l of HCl is prepared. The stock solution is adjusted to pH 3 by the addition of concentrated HCl. 100 ml of the stock solution is placed in a beaker with a stirring bar. A sample of lanthanum carbonate hydroxide powder is added to the solution. The amount of lanthanum carbonate hydroxide powder is such that the amount of La in suspension is 3 times the stoichiometric amount needed to react completely with the phosphate. Samples of the suspension are taken at intervals, through a filter that separated all solids from the liquid. The liquid sample is analyzed for phosphorous.
# (§2) To determine the reactivity of the lanthanum compound with respect to phosphate, the following test was conducted. A stock solution containing 13.75 g/l of anhydrous Na2HPO4 and 8.5 g/l of HCl was prepared. The stock solution was adjusted to pH 3 by the addition of concentrated HCl. An amount of 100 ml of the stock solution was placed in a beaker with a stirring bar. The lanthanum oxychloride from above was added to the solution to form a suspension. The amount of lanthanum oxychloride was such that the amount of La in suspension was 3 times the stoichiometric amount needed to react completely with the phosphate. Samples of the suspension were taken at time intervals, through a filter that separated all solids from the liquid. The liquid sample was analyzed for phosphorous.
# as §2, with “Lanthanum carbonate hydroxide powder made as described” for “The lanthanum oxychloride from”, “solution.” for “solution to form a suspension.”, “carbonate hydroxide powder” for “oxychloride”, “intervals” for “intervals,”
# (§3) To determine the reactivity of this lanthanum compound with respect to phosphate, the following test was conducted. A stock solution containing 13.75 g/l of anhydrous Na2HPO4 and 8.5 g/l of HCl was prepared. The stock solution was adjusted to pH 3 by the addition of concentrated HCl. An amount of 100 ml of the stock solution was placed in a beaker with a stirring bar. Anhydrous lanthanum oxycarbonate made as described above, was added to the solution. The amount of anhydrous lanthanum oxycarbonate was such that the amount of La in suspension was 3 times the stoichiometric amount needed to react completely with the phosphate. Samples of the suspension were taken at intervals, through a filter that separated all solids from the liquid. The liquid sample was analyzed for phosphorous.
# as §3, with “reactivity of the lanthanum compound” for “reactivity of this lanthanum compound”, “stirring bar. La2CO5 powder, made as” for “stirring bar. Anhydrous lanthanum oxycarbonate made as”, “amount of lanthanum oxycarbonate” for “amount of anhydrous lanthanum oxycarbonate”, “taken at intervals through a” for “taken at intervals, through a”
# [4] = second in vivo study in rats, urinary phosphate excretion; design: species or system Sprague-Dawley rats; settings: 0.3 or 0.6% of diet, average over days 2, 3, and 4
# Source text: Six young adult male Sprague-Dawley rats were randomly assigned to each group. Test items were lanthanum oxycarbonates La2O2CO3 and La2CO5 (compound B and compound C), each tested at 0.3 and 0.6% of diet. There was an additional negative control group receiving Sigmacell cellulose in place of the test item.
# The test items were mixed thoroughly into Teklad 7012CM diet. All groups received equivalent amounts of dietary nutrients.
# Rats were maintained in the animal facility for at least five days prior to use, housed individually in stainless steel hanging cages. On the first day of testing, they were placed individually in metabolic cages along with their test diet. Every 24 hours, their output of urine and feces was measured and collected and their general health visually assessed. The study continued for 4 days. Food consumption for each day of the study was recorded. Starting and ending animal weights were recorded.
# Urine samples were assayed for phosphorus, calcium, and creatinine concentration in a Hitachi 912 analyzer using Roche reagents. Urinary excretion of phosphorus per day was calculated for each rat from daily urine volume and phosphorus concentration. […] Food consumption was good for all groups. […]
# [5] = specific surface area by the BET method; format: physicochemical; settings: one of three repeats of Example 5
# Experimental: For each sample, the surface area measured by the BET method and the fraction of phosphate remaining after 10 min of reaction have been tabulated. […] The rate constant k1 is defined by the following equation: d[PO4]/dt=−k1[PO4]
# An aqueous HCl solution having a volume of 334.75 ml and containing LaCl3 (lanthanum chloride) at a concentration of 29.2 wt % as La2O3 was added to a 4 liter beaker and heated to 80° C. with stirring. The initial pH of the LaCl3 solution was 2.2. Two hundred and sixty five ml of an aqueous solution containing 63.59 g of sodium carbonate (Na2CO3) was metered into the heated beaker using a small pump at a steady flow rate for 2 hours. Using a Buchner filtering apparatus fitted with filter paper the filtrate was separated from the white powder product. The filter cake was mixed four times, each with 2 liters of distilled water and filtered to wash away the NaCl formed during the reaction. The washed filter cake was placed into a convection oven set at 105° C. for 2 hours or until a stable weight was observed. […] The surface area of the product was determined by the BET method. The test was repeated 3 times and slightly different surface areas and different reaction rates were obtained as shown in Table 1.
# [6] = urine phosphate excretion in dogs dosed orally with capsules; format: in vivo, beagle dogs; settings: oral capsules, 2250 mg elemental lanthanum twice daily, urine approximately 24 hours after dosing
# Experimental: as §1
# The tests led to reduction of urine phosphate excretion, a marker of phosphorous binding.
Compound,% Analyte Removed As [1],% Analyte Removed Be [1],% Analyte Removed Ca [1],% Analyte Removed Cd [1],% Analyte Removed Co [1],% Analyte Removed Cr [1],% Analyte Removed Cu [1],% Analyte Removed Fe [1],% Analyte Removed Mg [1],% Analyte Removed Mn [1],% Analyte Removed Pb [1],% Analyte Removed Sb [1],"Maximum concentration Cmax, plasma lanthanum [2]","Mean (sd) Area Under the Curve0-72 h, plasma lanthanum [2]",rate of removal of phosphate compared with commercial lanthanum carbonate hydrate La2(CO3)3.H2O and La2(CO3)3.4H2O [3],capacity of phosphate removal (PO4 removed/g of La compound) [3],phosphate in solution removed [3],Urinary phosphate excretion [4],surface area of the white powder [5],Median phosphorus/creatinine ratio (% reduction compared to pre-dose value) [6]
"O=C([O-])[O-].[La+3].[La+3].[O-2].[O-2] [Compound B, anhydrous lanthanum oxycarbonate]",92%,100%,21%,85%,59%,100%,98%,100%,0%,99%,99%,97%,2.45 (2.2) ng/mL,42.7 (34.8) ng-h/mL,faster,120 mg PO4/g,73%,2.3 mg/day,26.95 m^2/gm,37.0%
lanthanum oxycarbonate [Compound C],93%,100%,0%,83%,52%,100%,97%,100%,0%,99%,99%,96%,,,faster,,,1.9 mg/day,,
"O=C([O-])[O-].[La+3].[OH-] [A, lanthanum carbonate hydroxide]",29%,53%,28%,37%,29%,100%,10%,58%,0%,25%,98%,87%,2.77 (2.1) ng/mL,54.6 (28.0) ng-h/mL,faster,110 mg PO4/g,86%,,,48.4%
